# Assay results from patent US9074014B2 (Ipsen Pharma S.A.S., priority 2008, dated 2015).
# Where no end group is shown, it is not given here. [ ]: non-standard residue; d: D form. Ac5c = NC1(C(=O)O)CCCC1
# Columns and labels:
# [1] = Human plasma half-life assay; format: in vitro ADME; conditions: human plasma, 37° C., LC-MS; read-out: Human Plasma T½ (converted)
# [2] = Rat plasma half-life assay; format: in vitro ADME; conditions: rat plasma, 37° C., LC-MS; read-out: Rat Plasma T½ (converted)
# [3] = In vivo insulin secretion in normal rats; parameters: species or system Sprague Dawley rats; conditions: fasted male rats, iv compound with glucose 1 g/kg, samples to 20 minutes
# Experimental: D. Determination of In Vivo Insulin Secretion in Normal Rats
# Male Sprague Dawley rats with a body weight of approximately 275-300 g were used as experimental subjects. The day prior to the treatment, right atrial cannulae were implanted via the jugular vein under chlorohydrate. Each cannula was filled with 100 u/ml heparin saline and tied. The rats were fasted for approximately 18 hours prior to dosing with the compound or the vehicle (saline/0.25% BSA). The day of the experiment, aliquots of compound were thawed, brought to room temperature and vortexed thoroughly. A careful check was made for any sign of compound coming out of solution. 10 minutes prior to compound/glucose injection, a 500 μl blood sample was withdrawn and replaced with an equal volume of heparinized saline (10 u/ml). At time 0, a 500 μl blood sample was withdrawn through the cannula. Next, either the vehicle or the appropriate dose of the compound was injected into the cannula and pushed in with the glucose (1 g/kg) or vehicle solution. Finally, 500 μl of volume of heparinized saline (10 u/ml) was used to push in the remaining glucose through the cannula. Additional 500 μl blood samples were withdrawn at 2.5, 5, 10, and 20-minute post-glucose dosing; each immediately followed by a bolus, iv injection of 500 μl heparinized saline (10 u/ml) through the cannula. The plasma was collected from the blood samples by centrifugation, and stored at −20° C. until assay for insulin content. Numerical values of the total insulin secretion, which show the in vivo effects of the compounds of Examples 105, 106, 118, and 119, are summarized in Table 3.
# [4] = target: T1, human recombinant GIP receptor (Homo sapiens, UniProt P48546); test: In vitro hGIP receptor binding assay ([125I]GIP displacement, CHO-K1 membranes)
# T1 construct: expressed in transfected cells; host or cells: CHO-K1 clonal cells (membranes)
# T1 sequence (P48546 22-466): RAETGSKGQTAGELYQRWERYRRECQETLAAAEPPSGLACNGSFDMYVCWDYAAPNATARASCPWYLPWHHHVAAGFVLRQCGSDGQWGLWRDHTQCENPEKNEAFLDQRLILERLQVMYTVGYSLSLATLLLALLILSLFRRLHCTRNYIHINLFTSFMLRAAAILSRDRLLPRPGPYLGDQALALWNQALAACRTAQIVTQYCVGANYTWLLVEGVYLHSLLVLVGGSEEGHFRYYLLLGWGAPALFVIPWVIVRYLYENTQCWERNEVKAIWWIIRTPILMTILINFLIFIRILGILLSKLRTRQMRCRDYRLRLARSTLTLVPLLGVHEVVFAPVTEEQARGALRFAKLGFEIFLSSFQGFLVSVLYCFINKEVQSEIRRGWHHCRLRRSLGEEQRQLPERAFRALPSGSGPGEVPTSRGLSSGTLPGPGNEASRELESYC
# Source text: A. In Vitro hGIP Receptor Binding Assay
Molecule,half-life at 0.1 mg/ml [1] [h],half-life at 0.1 mg/ml [2] [h],AUC (total insulin secretion) [3],Ki [4] [pM]
"CC[C@H](C)[C@H](NC(=O)[C@H](CCCCN)NC(=O)[C@H](CC(=O)O)NC(=O)[C@H](CCSC)NC(=O)[C@H](C)NC(=O)[C@@H](NC(=O)C1(NC(=O)[C@H](Cc2ccc(O)cc2)NC(=O)[C@H](CC(=O)O)NC(=O)[C@H](CO)NC(=O)[C@@H](NC(=O)[C@H](Cc2ccccc2)NC(=O)[C@@H](NC(=O)CNC(=O)[C@H](CCC(=O)O)NC(=O)[C@@H](C)NC(=O)[C@@H](N)Cc2ccc(O)cc2)[C@@H](C)O)[C@@H](C)CC)CCCC1)[C@@H](C)CC)C(=O)N[C@@H](Cc1c[nH]cn1)C(=O)N[C@@H](CCC(N)=O)C(=O)N[C@@H](CCC(N)=O)C(=O)N[C@@H](CC(=O)O)C(=O)N[C@@H](Cc1ccccc1)C(=O)N[C@H](C(=O)N[C@@H](CC(N)=O)C(=O)N[C@@H](Cc1c[nH]c2ccccc12)C(=O)N[C@@H](CC(C)C)C(=O)N[C@@H](CC(C)C)C(=O)N[C@@H](C)C(=O)N[C@@H](CCC(N)=O)C(=O)N[C@@H](CCCCN)C(=O)NCC(=O)N[C@@H](CCCCN)C(=O)N[C@@H](CCCCN)C(=O)N[C@@H](CC(N)=O)C(=O)N[C@@H](CC(=O)O)C(=O)N[C@@H](Cc1c[nH]c2ccccc12)C(=O)N[C@@H](CCCCN)C(=O)N[C@@H](Cc1c[nH]cn1)C(=O)N[C@@H](CC(N)=O)C(=O)N[C@H](C(=O)N[C@H](C(=O)N[C@@H](CCC(N)=O)C(=O)N[C@@H](Cc1c[nH]cn1)C(=O)O)[C@@H](C)O)[C@@H](C)CC)C(C)C [Example 105, (D-Ala^2, A5c^11, His^43)hGIP(1-43)-OH]",19.1,6.9,114.70,–
"Y[dA]EGTFISDY[Ac5c]IAMDKIHQQDFVNWLLAQKGKKNDWKHNI[Ac5c]Q-OH [Example 106, (D-Ala^2, A5c^11, 41)hGIP(1-42)-OH]",> 55,9.2,161.73,–
"CCCC[C@H](NC(=O)[C@H](C)NC(=O)[C@@H](NC(=O)C1(NC(=O)[C@H](Cc2ccc(O)cc2)NC(=O)[C@H](CC(=O)O)NC(=O)[C@H](CO)NC(=O)[C@@H](NC(=O)[C@H](Cc2ccccc2)NC(=O)[C@@H](NC(=O)CNC(=O)[C@H](CCC(=O)O)NC(=O)CNC(=O)[C@@H](N)Cc2ccc(O)cc2)[C@@H](C)O)[C@@H](C)CC)CCCC1)[C@@H](C)CC)C(=O)N[C@@H](CC(=O)O)C(=O)N[C@@H](CCCCN)C(=O)N[C@H](C(=O)N[C@@H](Cc1c[nH]cn1)C(=O)N[C@@H](CCC(N)=O)C(=O)N[C@@H](CCC(N)=O)C(=O)N[C@@H](CC(=O)O)C(=O)N[C@@H](Cc1ccccc1)C(=O)N[C@H](C(=O)N[C@@H](CC(N)=O)C(=O)N[C@@H](Cc1c[nH]c2ccccc12)C(=O)N[C@@H](CC(C)C)C(=O)N[C@@H](CC(C)C)C(=O)N[C@@H](C)C(=O)N[C@@H](CCC(N)=O)C(=O)N[C@@H](CCCCN)C(=O)NCC(=O)N[C@@H](CCCCN)C(=O)N[C@@H](CCCCN)C(=O)N[C@@H](CC(N)=O)C(=O)N[C@@H](CC(=O)O)C(=O)N[C@@H](Cc1c[nH]c2ccccc12)C(=O)N[C@@H](CCCCN)C(=O)N[C@@H](Cc1c[nH]cn1)C(=O)N[C@@H](CC(N)=O)C(=O)N[C@H](C(=O)N[C@H](C(=O)N[C@@H](CCC(N)=O)C(=O)N[C@@H](Cc1c[nH]cn1)C(=O)O)[C@@H](C)O)[C@@H](C)CC)C(C)C)[C@@H](C)CC [Example 118, (Gly^2, A5c^11, Nle^14, His^43)hGIP(1-43)-OH]",> 42,11.2,88.22,870
"CCCC[C@H](NC(=O)[C@H](C)NC(=O)[C@@H](NC(=O)C1(NC(=O)[C@H](Cc2ccc(O)cc2)NC(=O)[C@H](CC(=O)O)NC(=O)[C@H](CO)NC(=O)[C@@H](NC(=O)[C@H](Cc2ccccc2)NC(=O)[C@@H](NC(=O)CNC(=O)[C@H](CCC(=O)O)NC(=O)[C@@H](C)NC(=O)[C@@H](N)Cc2ccc(O)cc2)[C@@H](C)O)[C@@H](C)CC)CCCC1)[C@@H](C)CC)C(=O)N[C@@H](CC(=O)O)C(=O)N[C@@H](CCCCN)C(=O)N[C@H](C(=O)N[C@@H](Cc1c[nH]cn1)C(=O)N[C@@H](CCC(N)=O)C(=O)N[C@@H](CCC(N)=O)C(=O)N[C@@H](CC(=O)O)C(=O)N[C@@H](Cc1ccccc1)C(=O)N[C@H](C(=O)N[C@@H](CC(N)=O)C(=O)N[C@@H](Cc1c[nH]c2ccccc12)C(=O)N[C@@H](CC(C)C)C(=O)N[C@@H](CC(C)C)C(=O)N[C@@H](C)C(=O)N[C@@H](CCC(N)=O)C(=O)N[C@@H](CCCCN)C(=O)NCC(=O)N[C@@H](CCCCN)C(=O)N[C@@H](CCCCN)C(=O)N[C@@H](CC(N)=O)C(=O)N[C@@H](CC(=O)O)C(=O)N[C@@H](Cc1c[nH]c2ccccc12)C(=O)N[C@@H](CCCCN)C(=O)N[C@@H](Cc1c[nH]cn1)C(=O)N[C@@H](CC(N)=O)C(=O)N[C@H](C(=O)N[C@H](C(=O)N[C@@H](CCC(N)=O)C(=O)N[C@@H](Cc1c[nH]cn1)C(=O)O)[C@@H](C)O)[C@@H](C)CC)C(C)C)[C@@H](C)CC [Example 119, (D-Ala^2, A5c^11, Nle^14, His^43)hGIP(1-43)-OH]",35.7,15.4,167.48,–
